Measured values as given in the supplement of paper PMC10307832.

What was measured:
Assay in all cases: relative viability (nuclei count vs DMSO), 5 days (fraction); higher = more cells survive
201T = tested on: 201T
Outline: (§1)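 Cells from lung cancer lines were seeded into 1536-well plates and, one day later, dosed by pin tool. Treatments were either a single drug or a fixed dose of an anchor drug with five library-drug doses (not always all listed) in √10 steps. After 5 days, nuclei were stained in a one-step fixation (final 0.05% Triton X-100, 1% formaldehyde, 1 ug/ml Hoechst) and counted on 4× images, and relative viability is the treated-to-vehicle nuclei ratio, as the median of duplicate plates.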

BEN = tested on: BEN
Outline: as §1

EPLC-272H = tested on: EPLC-272H
Outline: as §1

HCC-15 = tested on: HCC-15
Outline: as §1

HCC-78 = tested on: HCC-78
Outline: as §1

LCLC-97TM1 = tested on: LCLC-97TM1
Outline: as §1

LU99A = tested on: LU99A
Outline: as §1

NCI-H1355 = tested on: NCI-H1355
Outline: as §1

NCI-H1395 = tested on: NCI-H1395
Outline: as §1

NCI-H2009 = tested on: NCI-H2009
Outline: as §1

NCI-H2085 = tested on: NCI-H2085
Outline: as §1

NCI-H2126 = tested on: NCI-H2126
Outline: as §1

NCI-H2228 = tested on: NCI-H2228
Outline: as §1

NCI-H23 = tested on: NCI-H23
Outline: as §1

NCI-H2405 = tested on: NCI-H2405
Outline: as §1

NCI-H322M = tested on: NCI-H322M
Outline: as §1

NCI-H460 = tested on: NCI-H460
Outline: as §1

NCI-H647 = tested on: NCI-H647
Outline: as §1

NCI-H650 = tested on: NCI-H650
Outline: as §1

NCI-H661 = tested on: NCI-H661
Outline: as §1

NCI-H838 = tested on: NCI-H838
Outline: as §1

PC-14 = tested on: PC-14
Outline: as §1

CCNC(=O)c1noc(-c2cc(C(C)C)c(O)cc2O)c1-c1ccc(CN2CCOCC2)cc1 [Luminespib] + C[C@]1(O)C[C@@H](c2nc(-c3ccc4ccc(-c5ccccc5)nc4c3)c3c(N)nccn32)C1 [Linsitinib] (partner 1 µM)
relative viability (201T; first compound 0.002 µM): 1.03 | relative viability (201T; first compound 0.006325 µM): 0.988 | relative viability (201T; first compound 0.02 µM): 0.872 | relative viability (201T; first compound 0.06325 µM): 1.08 | relative viability (201T; first compound 0.2 µM): 1.01 | relative viability (BEN; first compound 0.002 µM): 0.955 | relative viability (BEN; first compound 0.006325 µM): 0.892 | relative viability (BEN; first compound 0.02 µM): 0.427 | relative viability (BEN; first compound 0.06325 µM): 0.627 | relative viability (BEN; first compound 0.2 µM): 0.252 | relative viability (EPLC-272H; first compound 0.006325 µM): 1.07 | relative viability (EPLC-272H; first compound 0.02 µM): 0.727 | relative viability (EPLC-272H; first compound 0.06325 µM): 1.11 | relative viability (EPLC-272H; first compound 0.2 µM): 1.14 | relative viability (HCC-15; first compound 0.002 µM): 0.837 | relative viability (HCC-15; first compound 0.006325 µM): 0.873 | relative viability (HCC-15; first compound 0.02 µM): 0.929 | relative viability (HCC-15; first compound 0.06325 µM): 0.57 | relative viability (HCC-15; first compound 0.2 µM): 0.519 | relative viability (HCC-78; first compound 0.002 µM): 0.485 | relative viability (HCC-78; first compound 0.06325 µM): 0.76 | relative viability (HCC-78; first compound 0.2 µM): 0.251 | relative viability (LCLC-97TM1; first compound 0.002 µM): 0.213 | relative viability (LCLC-97TM1; first compound 0.006325 µM): 0.199 | relative viability (LCLC-97TM1; first compound 0.02 µM): 0.154 | relative viability (LCLC-97TM1; first compound 0.06325 µM): 0.174 | relative viability (LCLC-97TM1; first compound 0.2 µM): 0.192 | relative viability (LU99A; first compound 0.002 µM): 0.574 | relative viability (LU99A; first compound 0.006325 µM): 0.486 | relative viability (LU99A; first compound 0.02 µM): 0.357 | relative viability (LU99A; first compound 0.06325 µM): 0.172 | relative viability (LU99A; first compound 0.2 µM): 0.144 | relative viability (NCI-H1355; first compound 0.002 µM): 0.903 | relative viability (NCI-H1355; first compound 0.006325 µM): 0.785 | relative viability (NCI-H1355; first compound 0.02 µM): 0.425 | relative viability (NCI-H1355; first compound 0.06325 µM): 0.763 | relative viability (NCI-H1355; first compound 0.2 µM): 0.81 | relative viability (NCI-H1395; first compound 0.002 µM): 1.06 | relative viability (NCI-H1395; first compound 0.006325 µM): 1.02 | relative viability (NCI-H1395; first compound 0.02 µM): 0.759 | relative viability (NCI-H1395; first compound 0.06325 µM): 0.772 | relative viability (NCI-H1395; first compound 0.2 µM): 0.326 | relative viability (NCI-H2009; first compound 0.002 µM): 1.21 | relative viability (NCI-H2009; first compound 0.006325 µM): 1.2 | relative viability (NCI-H2009; first compound 0.02 µM): 1.21 | relative viability (NCI-H2009; first compound 0.06325 µM): 1.13 | relative viability (NCI-H2009; first compound 0.2 µM): 0.0697 | relative viability (NCI-H2085; first compound 0.002 µM): 0.405 | relative viability (NCI-H2085; first compound 0.006325 µM): 0.76 | relative viability (NCI-H2085; first compound 0.02 µM): 0.826 | relative viability (NCI-H2085; first compound 0.06325 µM): 0.442 | relative viability (NCI-H2085; first compound 0.2 µM): 0.241 | relative viability (NCI-H2126; first compound 0.002 µM): 0.686 | relative viability (NCI-H2126; first compound 0.006325 µM): 0.652 | relative viability (NCI-H2126; first compound 0.02 µM): 0.536 | relative viability (NCI-H2126; first compound 0.06325 µM): 0.761 | relative viability (NCI-H2126; first compound 0.2 µM): 0.741 | relative viability (NCI-H2228; first compound 0.002 µM): 0.612 | relative viability (NCI-H2228; first compound 0.006325 µM): 0.629 | relative viability (NCI-H2228; first compound 0.02 µM): 0.203 | relative viability (NCI-H2228; first compound 0.06325 µM): 0.168 | relative viability (NCI-H2228; first compound 0.2 µM): 0.199 | relative viability (NCI-H23; first compound 0.002 µM): 0.674 | relative viability (NCI-H23; first compound 0.006325 µM): 0.55 | relative viability (NCI-H23; first compound 0.02 µM): 0.355 | relative viability (NCI-H23; first compound 0.06325 µM): 0.172 | relative viability (NCI-H23; first compound 0.2 µM): 0.136 | relative viability (NCI-H2405; first compound 0.002 µM): 1.01 | relative viability (NCI-H2405; first compound 0.006325 µM): 0.721 | relative viability (NCI-H2405; first compound 0.02 µM): 0.613 | relative viability (NCI-H2405; first compound 0.06325 µM): 0.254 | relative viability (NCI-H2405; first compound 0.2 µM): 0.182 | relative viability (NCI-H322M; first compound 0.002 µM): 0.805 | relative viability (NCI-H322M; first compound 0.006325 µM): 0.851 | relative viability (NCI-H322M; first compound 0.02 µM): 0.725 | relative viability (NCI-H322M; first compound 0.06325 µM): 0.998 | relative viability (NCI-H322M; first compound 0.2 µM): 0.963 | relative viability (NCI-H460; first compound 0.002 µM): 0.862 | relative viability (NCI-H460; first compound 0.006325 µM): 0.64 | relative viability (NCI-H460; first compound 0.02 µM): 0.0374 | relative viability (NCI-H460; first compound 0.06325 µM): 0.0101 | relative viability (NCI-H460; first compound 0.2 µM): 0.0074 | relative viability (NCI-H647; first compound 0.002 µM): 1.23 | relative viability (NCI-H647; first compound 0.006325 µM): 1.26 | relative viability (NCI-H647; first compound 0.02 µM): 0.914 | relative viability (NCI-H647; first compound 0.06325 µM): 0.0924 | relative viability (NCI-H647; first compound 0.2 µM): 0.0826 | relative viability (NCI-H650; first compound 0.002 µM): 0.917 | relative viability (NCI-H650; first compound 0.006325 µM): 0.888 | relative viability (NCI-H650; first compound 0.02 µM): 0.497 | relative viability (NCI-H650; first compound 0.06325 µM): 0.0891 | relative viability (NCI-H650; first compound 0.2 µM): 0.117 | relative viability (NCI-H661; first compound 0.002 µM): 0.569 | relative viability (NCI-H661; first compound 0.006325 µM): 0.527 | relative viability (NCI-H661; first compound 0.02 µM): 0.369 | relative viability (NCI-H661; first compound 0.06325 µM): 0.395 | relative viability (NCI-H661; first compound 0.2 µM): 0.187 | relative viability (NCI-H838; first compound 0.002 µM): 1 | relative viability (NCI-H838; first compound 0.006325 µM): 0.942 | relative viability (NCI-H838; first compound 0.02 µM): 0.77 | relative viability (NCI-H838; first compound 0.06325 µM): 0.13 | relative viability (NCI-H838; first compound 0.2 µM): 0.149 | relative viability (PC-14; first compound 0.002 µM): 0.896 | relative viability (PC-14; first compound 0.006325 µM): 0.897 | relative viability (PC-14; first compound 0.02 µM): 1.09 | relative viability (PC-14; first compound 0.06325 µM): 0.936 | relative viability (PC-14; first compound 0.2 µM): 0.146
